Patent US7772268B2, “Diacyl indazole derivatives as lipase and phospholipase inhibitors” (Sanofi-Aventis, priority 2005, dated 2010)

Columns and labels:
endothelial lipase (EL) = molecular target: T1, endothelial lipase (EL) (Homo sapiens, UniProt Q9Y5X9); assay: EL inhibition assay (conditioned medium of recombinant cell lines, Bodipy phospholipid substrate); format: biochemical; conditions: EL from conditioned medium (CHO, HEK293); 37° C., 60 minutes
T1 construct: made in house; host or cells: recombinant cell lines CHO, HEK293 (conditioned medium, concentrated)
T1 sequence (Q9Y5X9 21-500): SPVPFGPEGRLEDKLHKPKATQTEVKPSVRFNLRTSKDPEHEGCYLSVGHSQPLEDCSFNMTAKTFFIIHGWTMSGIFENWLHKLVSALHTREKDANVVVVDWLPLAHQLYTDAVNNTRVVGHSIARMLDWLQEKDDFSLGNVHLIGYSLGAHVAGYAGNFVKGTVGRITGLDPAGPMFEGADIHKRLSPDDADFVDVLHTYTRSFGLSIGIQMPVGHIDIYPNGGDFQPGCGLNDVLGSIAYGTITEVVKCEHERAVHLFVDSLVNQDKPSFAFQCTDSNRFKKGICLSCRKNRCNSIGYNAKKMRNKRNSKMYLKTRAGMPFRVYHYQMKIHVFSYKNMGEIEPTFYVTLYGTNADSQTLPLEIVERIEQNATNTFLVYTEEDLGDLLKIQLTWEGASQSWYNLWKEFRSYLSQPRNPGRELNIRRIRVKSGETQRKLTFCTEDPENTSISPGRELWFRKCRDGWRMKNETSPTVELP
Source text: EL is released as secretory protein in high concentration into cell culture medium (conditioned medium) by recombinant cell lines (CHO, HEK293). This is employed as enzyme solution after concentration.
The phospholipase-specific substrate 1,2-bis(4,4-difluoro-5,7-dimethyl-4-bora-3a,4a-diaza-s-indacene-3-undecanoyl)-sn-glycero-3-phosphocholine, (manufacturer Molecular Probes) is used to characterize the enzymatic activity of endothelial lipase and the effect of inhibitors. Hydrolysis of the A1 ester linkage of this phospholipid by the enzyme liberates the fluorescent dye Bodipy which can be detected after separation by thin-layer chromatography on an HPTLC plate (silica gel 60, Merck) or directly in the reaction vessel by measuring the fluorescence.
The substrate solution is prepared by taking up 100 μg of 1,2-bis(4,4-difluoro-5,7-dimethyl-4-bora-3a,4a-diaza-s-indacene-3-undecanoyl)-sn-glycero-3-phospho-choline (manufacturer Molecular Probes), 2.4 mg of tripalmitin (Sigma) and 7.9 mg of DOP—choline (1,2-dioleoyl-sn-glycero-3-phosphocholine) in 393 μl of chloroform and then transferring 157 μl into a fresh reaction vessel. After evaporation of the solvent, the lipid mixture is dissolved in 4 ml of 200 mM TRIS-HCl, 150 mM sodium chloride, pH=7.4, by sonication twice. The subsequent enzymic reaction takes place at 37° C. for 60 minutes. For this purpose, 45 μl of the substrate solution are incubated with 1 μl of inhibitor of appropriate concentration (dissolved in DMSO, pure DMSO solution is used as control) and 5 μl of enzyme solution (conditioned medium). Then 3 μl of the assay mixture are loaded onto an HPTLC plate (silica gel 60, Merck), and the liberated fluorescent dye is separated for detection with an eluent (diethyl ether:petroleum benzene:acetic acid [78:22:1]). After evaporation of the eluent, the plate is read in a fluorescence scanner. An increased release of the fluorescent dye in the uninhibited reaction is to be observed as a measure of the enzymic activity.
The enzymatic activity is reduced as a function of the inhibitor concentration used, and the inhibitor concentration at which a half-maximum enzymatic activity is observed is called IC50.

[1] = molecular target: T2, hormone sensitive lipase, HSL (Rattus norvegicus, UniProt P15304); assay: HSL inhibition assay (partially purified HSL, [3H]trioleoylglycerol substrate); format: biochemical; conditions: partially purified HSL from rat fat cells; 37° C., 30 min
T2 construct: Isolated rat fat cells are obtained from epididymal adipose tissue; from tissue; host or cells: rat epididymal adipose tissue (isolated fat cells, Wistar rats)
T2 sequence (P15304 301-1068 limits assumed): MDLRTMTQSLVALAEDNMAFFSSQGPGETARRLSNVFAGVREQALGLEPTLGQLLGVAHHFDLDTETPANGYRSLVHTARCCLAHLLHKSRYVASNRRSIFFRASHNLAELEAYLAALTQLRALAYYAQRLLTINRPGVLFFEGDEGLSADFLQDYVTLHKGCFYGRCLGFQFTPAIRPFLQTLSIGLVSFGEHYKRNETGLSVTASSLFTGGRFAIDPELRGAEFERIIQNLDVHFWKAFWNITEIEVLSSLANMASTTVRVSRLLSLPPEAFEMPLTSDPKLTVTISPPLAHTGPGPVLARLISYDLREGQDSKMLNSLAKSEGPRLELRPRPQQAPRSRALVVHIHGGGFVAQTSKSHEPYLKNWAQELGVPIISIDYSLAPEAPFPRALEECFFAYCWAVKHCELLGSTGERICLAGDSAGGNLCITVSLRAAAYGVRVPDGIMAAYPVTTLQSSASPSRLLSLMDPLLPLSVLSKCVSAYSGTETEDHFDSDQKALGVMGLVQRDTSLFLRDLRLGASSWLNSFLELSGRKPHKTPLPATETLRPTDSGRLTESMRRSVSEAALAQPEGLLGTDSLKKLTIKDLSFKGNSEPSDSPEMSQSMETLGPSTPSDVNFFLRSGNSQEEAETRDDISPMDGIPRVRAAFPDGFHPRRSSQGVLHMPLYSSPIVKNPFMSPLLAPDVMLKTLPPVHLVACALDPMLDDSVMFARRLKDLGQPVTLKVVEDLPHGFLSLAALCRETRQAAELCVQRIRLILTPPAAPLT
Description: Preparation of the partially purified HSL:
Isolated rat fat cells are obtained from epididymal adipose tissue from untreated male rats (Wistar, 220-250 g) by collagenase treatment in accordance with published methods (e.g. S, Nilsson et al., Anal. Biochem. 158, 1986, 399-407; G. Fredrikson et al., J. Biol. Chem. 256, 1981, 6311-6320; H. Tornquist et al., J. Biol. Chem. 251, 1976, 813-819). The fat cells from 10 rats are washed three times by flotation with 50 ml of homogenization buffer ([…] Tris/HCl, pH 7.4, 0.25 M sucrose, 1 mM ETDA, 1 mM DTT, 10 μg/ml leupeptin, 10 μg/ml antipain, 20 μg/ml pepstatin) each time and finally taken up in 10 ml of homogenization buffer. The fat cells are homogenized in a Teflon-in-glass homogenizer (Braun-Melsungen) by 10 strokes at 1500 rpm and 15° C. The homogenate is centrifuged (Sorvall SM24 tubes, 5000 rpm, 10 min, 4° C.). The subnatant between the layer of fat at the top and the pellet is removed and the centrifugation is repeated. The subnatant resulting therefrom is centrifuged again (Sorvall SM24 tubes, 20 000 rpm, 45 min, 4° C.). […] After incubation at 4° C. for 60 min (shaking at intervals of 15 min), the mixture is centrifuged (Sorvall SM24 tubes, 3000 rpm, 10 min, 4° C.). The supernatant is adjusted to pH 5.2 by adding glacial acetic acid and is incubated at 4° C. for 30 min. The precipitates are collected by centrifugation (Sorvall SS34, 12 000 rpm, 10 min, 4° C.) and suspended in 2.5 ml of 20 mM Tris/HCl, pH 7.0, 1 mM EDTA, 65 mM NaCl, 13% sucrose, 1 mM DTT, 10 μg/ml leupeptin/pepstatin/antipain. The suspension is dialyzed against 25 mM Tris/HCl, pH 7.4, 50% glycerol, 1 mM DTT, 10 μg/ml leupeptin, pepstatin, antipain at 4° C. overnight and then loaded onto a hydroxiapatite column (0.1 g per 1 ml of suspension, equilibrated with 10 mM potassium phosphate, pH 7.0, 30% glycerol, 1 mM DTT). The column is washed with four volumes of equilibration buffer at a flow rate of 20 to 30 ml/h. The HSL is eluted with one volume of equilibration buffer containing 0.5 M potassium phosphate and then dialyzed (see above) and concentrated 5- to 10-fold by ultrafiltration (Amicon Diaflo PM 10 Filter) at 4° C. The partially purified HSL can be stored at −70° C. for 4 to 6 weeks.
To prepare the substrate, 25-50 μCi of [3H]trioleoylglycerol (in toluene), 6.8 μmol of unlabeled trioleoylglycerol and 0.6 mg of phospholipids (phosphatidylcholine/phosphatidylinositol 3:1 w/v) are mixed, dried with N2 and then taken up in 2 ml of 0.1 M KPi (pH 7.0) by ultrasound treatment (Branson 250, microtip, setting 1-2, 2×1 min with an interval of 1 min). After addition of 1 ml of KPi and renewed ultrasound treatment (4×30 sec on ice with intervals of 30 sec), 1 ml of 20% BSA (in KPi) is added (final concentration of trioleoylglycerol 1.7 mM). For the reaction, 100 μl of substrate solution are pipetted into 100 μl of HSL solution (HSL prepared as above, diluted in 20 mM KPi, pH 7.0, 1 mM EDTA, 1 mM DTT, 0.02% BSA, 20 μg/ml pepstatin, 10 μg/ml leupeptin) and incubated at 37° C. for 30 min. Addition of 3.25 ml of methanol/chloroform/heptane (10:9:7) and of 1.05 ml of 0.1 M K2CO3, 0.1 M boric acid (pH 10.5) is followed by thorough mixing and finally centrifugation (800×g, 20 min). After phase separation, one equivalent of the upper phase (1 ml) is removed and the radioactivity is determined by liquid scintillation measurement.
Substances are normally tested in four independent mixtures. The inhibition of the HSL enzymatic activity by a test substance is determined by comparing with an uninhibited control reaction. The IC50 is calculated from an inhibition plot with at least 10 concentrations of the test substance. The GRAPHIT, Elsevier-BIOSOFT software package is used to analyze the data.

IC50 [1] [µM]	Molecule	IC50 (endothelial lipase (EL)) [µM]
0.62	O=C(N1CCN(c2ccccc2)CC1)n1c(=O)c2ccc(F)cc2n1C(=O)N1CCN(c2ccccc2)CC1 [Example 1b, 6-fluoro-1,2-bis(4-phenylpiperazine-1-carbonyl)-1,2-dihydroindazol-3-one]	–
0.32	O=C(Oc1nn(C(=O)N2CCN(c3ccccc3)CC2)c2cc(F)ccc12)N1CCN(c2ccccc2)CC1 [Example 1a, 6-Fluoro-1-(4-phenylpiperazine-1-carbonyl)-1H-indazol-3-yl 4-phenylpiperazine-1-carboxylate]	–
1.15	CC1CCN(C(=O)Oc2nn(C(=O)N3CCC(C)CC3)c3cc(F)ccc23)CC1 [Example 9b, 6-fluoro-1-(4-methylpiperidine-1-carbonyl)-1H-indazol-3-yl 4-methylpiperidine-1-carboxylate]	–

Further lines, the molecule ahead of its results:

Molecule	IC50 [1] [µM]	IC50 (endothelial lipase (EL)) [µM]
6-Chloro-3-oxo-3H-indazole-1,2-dicarboxylic acid bishexylamide [Example 10a]	–	0.05
O=C(Oc1nn(C(=O)N2CCc3sccc3C2)c2cc(F)ccc12)N1CCc2sccc2C1 [Example 2, 1-(6,7-Dihydro-4H-thieno[3,2-c]pyridine-5-carbonyl)-6-fluoro-1H-indazol-3-yl 6,7-dihydro-4H-thieno[3,2-c]pyridine-5-carboxylate]	1.11	–
CC1CCN(C(=O)Oc2nn(C(=O)N3CCC(C(F)(F)F)CC3)c3cc(N)ccc23)CC1 [Example 14, 6-Amino-1-(4-trifluoromethylpiperidine-1-carbonyl)-1H-indazol-3-yl 4-methyl-piperidine-1-carboxylate]	1	–
CCCCCCNC(=O)Oc1nn(C(=O)NCCCCCC)c2cc(Cl)ccc12 [Example 10b, 6-chloro-1-hexylcarbamoyl-1H-indazol-3-yl hexylcarbamate]	–	0.06
Cc1cc(O)nc2c1c(OC(=O)N1CCC(C(F)(F)F)CC1)nn2C(=O)N1CCN(C)CC1 [Example 15, 6-Hydroxy-4-methyl-1-(4-methylpiperazine-1-carbonyl)-1H-pyrazolo[3,4-b]pyridin-3-yl 4-trifluoromethylpiperidine-1-carboxylate]	1.5	–
Cc1ccccc1CNC(=O)n1c(=O)c2ccccc2n1C(=O)NCc1ccccc1C [Example 13, 3-Oxo-3H-indazole-1,2-dicarboxylic acid bis(2-methylbenzylamide)]	–	0.84
6-Chloro-3-oxo-3H-indazole-1,2-dicarboxylic acid bisbenzylamide [Example 11a]	–	0.26
Cc1cc(O)nc2c1c(OC(=O)N1CCC(C)CC1)nn2C(=O)N1CCC(C(F)(F)F)CC1 [Example 16, 6-Hydroxy-4-methyl-1-(4-trifluoromethylpiperidine-1-carbonyl)-1H-pyrazolo-[3,4-b]pyridin-3-yl 4-methylpiperidine-1-carboxylate]	0.58	–
O=C(NCc1ccccc1)Oc1nn(C(=O)NCc2ccccc2)c2cc(Cl)ccc12 [Example 11b, 1-benzylcarbamoyl-6-chloro-1H-indazol-3-yl benzyl carbamate]	–	1.47
Cc1ccccc1CNC(=O)n1c(=O)c2ccccc2n1C(=O)N1CCC(C)CC1 [Example 12, 1-(4-Methylpiperidine-1-carbonyl)-3-oxo-1,3-dihydroindazole-2-carboxylic acid 2-methylbenzylamide]	–	0.22
